Results taken from US10798941B2, “Microbiocidal oxadiazole derivatives” (SYNGENTA PARTICIPATIONS AG, priority 2016, dated 2020).

What was measured:
[1] = test system: Puccinia recondita f. Sp. Tritici; test: Puccinia recondita f. sp. tritici / wheat / leaf disc preventative (brown rust); format: in vivo; conditions: foliar, 168 h, 200 ppm in the applied formulation, wheat leaf segments cv. Kanzler, preventative, inoculated 1 day after application, assessed 7 to 9 days after application, vs untreated, read-out: disease control
Method in brief: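 Preventative leaf-segment test: spray application of diluted formulated compound on wheat cv. Kanzler, spore inoculation after 1 day. Percent control relative to untreated segments rated 7 to 9 days post-application, with incubation at 19° C, 75% relative humidity, 12 h photoperiod.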

[2] = test system: Glomerella Lagenarium (Colletotrichum Lagenarium); test: Glomerella lagenarium (Colletotrichum lagenarium) liquid culture / cucumber / preventative (anthracnose); format: cell-based; conditions: Colletotrichum orbiculare; 20 ppm in the applied formulation; liquid culture in PDB, 24° C., inhibition of growth measured photometrically 3 to 4 days after application, vs untreated; read-out: disease control
Method in brief: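 Conidia from cryogenic storage were mixed into potato dextrose broth. This was added to compound diluted from DMSO into 0.025% Tween20, tested at 20 ppm. Plates were incubated in the dark at 24 °C and 96% relative humidity, and growth was read photometrically after 2–7 days as % activity versus untreated check.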

[3] = test system: Phakopsora pachyrhizi; test: Phakopsora pachyrhizi / soybean / leaf disc preventative (Asian soybean rust); format: in vivo; conditions: foliar, 288 h, 200 ppm in the applied formulation, soybean leaf disks, inoculated one day after application, assessed 12 to 14 days after application, vs untreated, read-out: disease control
Method in brief: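 Read-out is percent disease control relative to untreated check discs, assessed once untreated discs show adequate disease, 12 to 14 days after application. Compounds, tested at 200 ppm in the applied formulation, are sprayed onto soybean leaf discs one day before inoculation with a spore suspension.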

[4] = test system: Puccinia recondita f. Sp. Tritici; test: Puccinia recondita f. sp. tritici / wheat / leaf disc curative (brown rust); format: in vivo; conditions: foliar, 144 h, 200 ppm in the applied formulation, wheat leaf segments cv. Kanzler, applied 1 day after inoculation, assessed 6 to 8 days after application, vs untreated, read-out: disease control
Method in brief: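 Compound applied 1 day after spore inoculation of wheat cv. Kanzler leaf segments on agar (dark, 19 °C, 75% RH before treatment). After further incubation under 12 h light/12 h dark at 19 °C and 75% RH, disease control relative to untreated segments rated 6–8 days post-application.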

SMILES | melting point | pest or weed control at 200 ppm [1] | inhibition of growth at 20 ppm [2] | pest or weed control at 200 ppm [3] | pest or weed control at 200 ppm [4]
CCc1cccc(CC)c1-n1ncc(-c2cn(Cc3ccc(-c4noc(C(F)(F)F)n4)cc3)nn2)c1C [Compound 1.31, 3-[4-[[4-[1-(2,6-diethylphenyl)-5-methyl-pyrazol-4-yl]triazol-1-yl]methyl]phenyl]-5-(trifluoromethyl)-1,2,4-oxadiazole] | 157.6 to 161.9 °C |  |  |  | 
CCOC(=O)c1cnn(CC(F)c2ccc(-c3noc(C(F)(F)F)n3)cc2)c1 (stereo not drawn) [Compound 1.311, ethyl 1-[2-fluoro-2-[4-[5-(trifluoromethyl)-1,2,4-oxadiazol-3-yl]phenyl]ethyl]pyrazole-4-carboxylate] | 145 to 147 °C |  |  |  | 
CCNC(=O)c1cnn(Cc2ccc(-c3noc(C(F)(F)F)n3)cc2)c1 [Compound 1.267, ~{N}-ethyl-1-[[4-[5-(trifluoromethyl)-1,2,4-oxadiazol-3-yl]phenyl]methyl]pyrazole-4-carboxamide] | 166 to 176 °C |  |  |  | 
COC(=O)c1cnn(Cc2ccc(-c3noc(C(F)(F)F)n3)cc2)c1 [Compound 1.248, methyl 1-[[4-[5-(trifluoromethyl)-1,2,4-oxadiazol-3-yl]phenyl]methyl]pyrazole-4-carboxylate] | 122 to 129 °C |  |  |  | 
CCCOC(=O)c1cnn(Cc2ccc(-c3noc(C(F)(F)F)n3)cc2)c1 [Compound 1.264, propyl 1-[[4-[5-(trifluoromethyl)-1,2,4-oxadiazol-3-yl]phenyl]methyl]pyrazole-4-carboxylate] | 105 to 115 °C |  |  |  | 
O=C(Nc1ccc(Cl)cc1)c1cn(Cc2ccc(-c3noc(C(F)(F)F)n3)cc2)nn1 [Compound 1.282, N-(4-chlorophenyl)-1-[[4-[5-(trifluoromethyl)-1,2,4-oxadiazol-3-yl]phenyl]methyl]triazole-4-carboxamide] | 233 to 235 °C | ≥ 80% |  |  | 
N#Cc1ncnn1Cc1ccc(-c2noc(C(F)(F)F)n2)cc1 [Compound 1.41, 2-[[4-[5-(trifluoromethyl)-1,2,4-oxadiazol-3-yl]phenyl]methyl]-1,2,4-triazole-3-carbonitrile] | 120 to 124 °C |  |  |  | 
CCOC(=O)c1cnn(Cc2ccc(-c3noc(C(F)(F)F)n3)c(F)c2)c1 [Compound 1.252, ethyl 1-[[3-fluoro-4-[5-(trifluoromethyl)-1,2,4-oxadiazol-3-yl]phenyl]methyl]pyrazole-4-carboxylate] | 131 to 135 °C |  |  |  | 
CC(C)(C)OC(=O)c1cnn(Cc2ccc(-c3noc(C(F)(F)F)n3)cc2)c1 [Compound 1.262, ~{tert}-butyl 1-[[4-[5-(trifluoromethyl)-1,2,4-oxadiazol-3-yl]phenyl]methyl]pyrazole-4-carboxylate] | 81 to 91 °C | ≥ 80% | ≥ 80% |  | 
COC(=O)c1ncn(Cc2ccc(-c3noc(C(F)(F)F)n3)cc2)n1 [Compound 1.37, methyl 1-[[4-[5-(trifluoromethyl)-1,2,4-oxadiazol-3-yl]phenyl]methyl]-1,2,4-triazole-3-carboxylate] | 174 to 177.2 °C | ≥ 80% | ≥ 80% |  | 
CON=Cc1cnn(Cc2ccc(-c3noc(C(F)(F)F)n3)cc2)c1 [Compound 1.285] | 88 to 98 °C |  |  |  | 
COCCNC(=O)c1cnn(Cc2ccc(-c3noc(C(F)(F)F)n3)cc2)c1 [Compound 1.250, N-(2-methoxyethyl)-1-[[4-[5-(trifluoromethyl)-1,2,4-oxadiazol-3-yl]phenyl]methyl]pyrazole-4-carboxamide] | 132 to 142 °C | ≥ 80% | ≥ 80% |  | 
CNC(=O)c1cnn(Cc2ccc(-c3noc(C(F)(F)F)n3)cc2)c1 [Compound 1.150, N-methyl-1-[[4-[5-(trifluoromethyl)-1,2,4-oxadiazol-3-yl]phenyl]methyl]pyrazole-4-carboxamide] | 156 to 161 °C |  |  |  | 
CONC(=O)c1cnn(Cc2ccc(-c3noc(C(F)(F)F)n3)cc2)c1 [Compound 1.266, ~{N}-methoxy-1-[[4-[5-(trifluoromethyl)-1,2,4-oxadiazol-3-yl]phenyl]methyl]pyrazole-4-carboxamide] | 128 to 138 °C |  |  |  | 
FC(F)(F)c1nc(-c2ccc(Cn3ncc4ccccc43)cc2)no1 [Compound 1.87, 3-[4-(indazol-1-ylmethyl)phenyl]-5-(trifluoromethyl)-1,2,4-oxadiazole] |  | ≥ 80% | ≥ 80% | ≥ 80% | ≥ 80%
CCCSc1ncnn1Cc1ccc(-c2noc(C(F)(F)F)n2)cc1 [Compound 1.207, 3-[4-[(5-propylsulfanyl-1,2,4-triazol-1-yl)methyl]phenyl]-5-(trifluoromethyl)-1,2,4-oxadiazole] |  | ≥ 80% | ≥ 80% | ≥ 80% | ≥ 80%
COC(=O)c1cccc2nn(Cc3ccc(-c4noc(C(F)(F)F)n4)cc3)cc12 [Compound 1.192, methyl 2-[[4-[5-(trifluoromethyl)-1,2,4-oxadiazol-3-yl]phenyl]methyl]indazole-4-carboxylate] |  | ≥ 80% | ≥ 80% | ≥ 80% | ≥ 80%
FC(F)(F)c1nc(-c2ccc(Cn3cccc4nnnc3-4)cc2)no1 [Compound 1.244, 3-[4-(triazolo[4,5-b]pyridin-4-ylmethyl)phenyl]-5-(trifluoromethyl)-1,2,4-oxadiazole] |  | ≥ 80% | ≥ 80% | ≥ 80% | ≥ 80%
CON(C)C(=O)c1cnn(Cc2ccc(-c3noc(C(F)(F)F)n3)cc2)c1 [Compound 1.260, N-methoxy-N-methyl-1-[[4-[5-(trifluoromethyl)-1,2,4-oxadiazol-3-yl]phenyl]methyl]pyrazole-4-carboxamide] | 102 to 112 °C |  |  |  | 
Cc1cc(C#N)nn1Cc1ccc(-c2noc(C(F)(F)F)n2)cc1 [Compound 1.93, 5-methyl-1-[[4-[5-(trifluoromethyl)-1,2,4-oxadiazol-3-yl]phenyl]methyl]pyrazole-3-carbonitrile] |  | ≥ 80% | ≥ 80% | ≥ 80% | ≥ 80%
N#Cc1ncn(Cc2ccc(-c3noc(C(F)(F)F)n3)nc2)n1 [Compound 1.257, 1-[[6-[5-(trifluoromethyl)-1,2,4-oxadiazol-3-yl]-3-pyridyl]methyl]-1,2,4-triazole-3-carbonitrile] | 105 to 108 °C |  | ≥ 80% |  | 
N#CC(c1ccc(-c2noc(C(F)(F)F)n2)cc1)N1CCOCC1 (stereo not drawn) [Compound 1.312, 2-morpholino-2-[4-[5-(trifluoromethyl)-1,2,4-oxadiazol-3-yl]phenyl]acetonitrile] |  | ≥ 80% | ≥ 80% | ≥ 80% | ≥ 80%
CCN(CC)C(=O)c1cnn(Cc2ccc(-c3noc(C(F)(F)F)n3)cc2)c1 [Compound 1.259, N,N-diethyl-1-[[4-[5-(trifluoromethyl)-1,2,4-oxadiazol-3-yl]phenyl]methyl]pyrazole-4-carboxamide] | 86 to 96 °C |  |  |  | 
FC(F)(F)c1nc(-c2ccc(Cn3cnc(Br)c3)nc2)no1 [Compound 1.136, 3-[6-[(4-bromoimidazol-1-yl)methyl]-3-pyridyl]-5-(trifluoromethyl)-1,2,4-oxadiazole] |  | ≥ 80% | ≥ 80% | ≥ 80% | ≥ 80%
COc1nc(N)n(Cc2ccc(-c3noc(C(F)(F)F)n3)cc2)n1 [Compound 1.214, 5-methoxy-2-[[4-[5-(trifluoromethyl)-1,2,4-oxadiazol-3-yl]phenyl]methyl]-1,2,4-triazol-3-amine] |  | ≥ 80% | ≥ 80% | ≥ 80% | ≥ 80%
FC(F)(F)c1ncn(Cc2ccc(-c3noc(C(F)(F)F)n3)cc2)n1 [Compound 1.39] | 68.2 to 70.1 °C |  |  |  | 
FC(F)(F)c1nc(-c2ccc(Cn3cnnc3)cc2)no1 [Compound 1.226, 3-[4-(1,2,4-triazol-4-ylmethyl)phenyl]-5-(trifluoromethyl)-1,2,4-oxadiazole] |  | ≥ 80% | ≥ 80% | ≥ 80% | ≥ 80%
CN(C)C(=O)c1cnn(Cc2ccc(-c3noc(C(F)(F)F)n3)cc2)c1 [Compound 1.149, N,N-dimethyl-1-[[4-[5-(trifluoromethyl)-1,2,4-oxadiazol-3-yl]phenyl]methyl]pyrazole-4-carboxamide] | 124 to 129 °C |  |  |  | 
